For assay [1], the target named is Glyceraldehyde-3-phosphate dehydrogenase (Homo sapiens, UniProt P04406).
Assay [2] addresses Alkaline phosphatase, placental type (Homo sapiens, UniProt P05187). Nature of the assay: PLAP enzyme inhibitors, confirmation, biochemical, luminescence (AID 1512). Type of assay: functional.
Assay [3] has as its target T1, Alkaline phosphatase, tissue-nonspecific isozyme (Homo sapiens, UniProt P05186).
T1 sequence (P05186 whole entry): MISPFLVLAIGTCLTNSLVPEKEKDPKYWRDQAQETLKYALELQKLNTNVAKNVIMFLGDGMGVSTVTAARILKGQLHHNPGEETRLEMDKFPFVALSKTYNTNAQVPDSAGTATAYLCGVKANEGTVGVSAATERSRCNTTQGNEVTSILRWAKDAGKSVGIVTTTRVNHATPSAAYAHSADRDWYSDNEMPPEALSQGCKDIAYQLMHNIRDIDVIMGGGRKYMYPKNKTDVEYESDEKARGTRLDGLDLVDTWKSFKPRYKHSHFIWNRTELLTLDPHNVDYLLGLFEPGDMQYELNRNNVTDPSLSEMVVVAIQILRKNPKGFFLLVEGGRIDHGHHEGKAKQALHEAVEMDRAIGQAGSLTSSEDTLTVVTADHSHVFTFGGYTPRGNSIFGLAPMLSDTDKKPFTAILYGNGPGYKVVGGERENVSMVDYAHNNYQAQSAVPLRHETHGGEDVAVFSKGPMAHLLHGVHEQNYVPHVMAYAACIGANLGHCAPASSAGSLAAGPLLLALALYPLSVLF
Nature of the assay: human TNAP enzyme inhibitors, SAR follow-up, biochemical, luminescent, dose response (AID 1056).

In assay [4] the target is T2, Ubiquitin-conjugating enzyme E2 N (Homo sapiens, UniProt P61088).
T2 sequence (P61088 whole entry): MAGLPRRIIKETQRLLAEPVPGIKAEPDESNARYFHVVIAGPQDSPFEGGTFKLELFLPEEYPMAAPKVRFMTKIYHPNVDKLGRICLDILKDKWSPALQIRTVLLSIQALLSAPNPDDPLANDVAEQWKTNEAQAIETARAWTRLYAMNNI
The assay is classed as functional.

Assay [5] concerns the target T2, Ubiquitin-conjugating enzyme E2 N. The assay is classed as functional. This is another data set of the same source.
The next assay addresses T3, Bcl-2-related protein A1 (Mus musculus, UniProt Q07440).
T3 sequence (Q07440 whole entry): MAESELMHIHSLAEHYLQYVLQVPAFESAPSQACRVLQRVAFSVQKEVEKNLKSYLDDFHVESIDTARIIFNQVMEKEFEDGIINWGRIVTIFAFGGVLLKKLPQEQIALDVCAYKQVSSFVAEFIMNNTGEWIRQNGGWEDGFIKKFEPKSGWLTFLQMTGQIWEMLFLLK
Type of assay: functional.

Another assay concerns the target T4, Coagulation factor XII (Homo sapiens, UniProt P00748).
T4 sequence (P00748 whole entry): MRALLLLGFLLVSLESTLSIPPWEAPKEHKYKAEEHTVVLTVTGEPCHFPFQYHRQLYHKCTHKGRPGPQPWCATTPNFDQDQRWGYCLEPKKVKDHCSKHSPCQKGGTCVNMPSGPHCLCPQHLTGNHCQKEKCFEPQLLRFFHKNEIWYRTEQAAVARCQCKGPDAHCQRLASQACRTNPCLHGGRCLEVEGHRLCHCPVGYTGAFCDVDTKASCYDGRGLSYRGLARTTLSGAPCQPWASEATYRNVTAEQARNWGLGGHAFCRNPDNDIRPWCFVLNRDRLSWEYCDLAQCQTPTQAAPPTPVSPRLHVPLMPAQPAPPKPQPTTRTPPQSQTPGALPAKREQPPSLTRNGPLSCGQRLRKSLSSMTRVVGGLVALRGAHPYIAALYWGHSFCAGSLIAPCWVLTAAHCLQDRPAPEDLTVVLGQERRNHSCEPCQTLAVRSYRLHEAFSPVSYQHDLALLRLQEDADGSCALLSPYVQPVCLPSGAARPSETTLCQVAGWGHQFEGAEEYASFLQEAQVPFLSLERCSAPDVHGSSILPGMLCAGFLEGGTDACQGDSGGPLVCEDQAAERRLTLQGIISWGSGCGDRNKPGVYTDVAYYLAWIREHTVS
The assay can be described thus: FXIIa inhibitor potency, concentration-response, biochemical (AID 716). The assay is classed as functional.

For assay [6], the target named is Eukaryotic translation initiation factor 4H (Homo sapiens, UniProt Q15056). Nature of the assay: eIF4H inhibition in translation initiation, SAR follow-up (AID 435011). Type of assay: functional.
Assay [7] addresses Polyadenylate-binding protein 1 (Homo sapiens, UniProt P11940). Nature of the assay: PABP inhibition in translation initiation, SAR follow-up (AID 435018). The assay is classed as functional.

Active and inactive are the calls of the source. Cut-off read from the data, not from the text of the source, for most assays here: actives have a measured IC50 and inactives only a lower limit.

Sequence of Alkaline phosphatase, placental type (P05187 whole entry): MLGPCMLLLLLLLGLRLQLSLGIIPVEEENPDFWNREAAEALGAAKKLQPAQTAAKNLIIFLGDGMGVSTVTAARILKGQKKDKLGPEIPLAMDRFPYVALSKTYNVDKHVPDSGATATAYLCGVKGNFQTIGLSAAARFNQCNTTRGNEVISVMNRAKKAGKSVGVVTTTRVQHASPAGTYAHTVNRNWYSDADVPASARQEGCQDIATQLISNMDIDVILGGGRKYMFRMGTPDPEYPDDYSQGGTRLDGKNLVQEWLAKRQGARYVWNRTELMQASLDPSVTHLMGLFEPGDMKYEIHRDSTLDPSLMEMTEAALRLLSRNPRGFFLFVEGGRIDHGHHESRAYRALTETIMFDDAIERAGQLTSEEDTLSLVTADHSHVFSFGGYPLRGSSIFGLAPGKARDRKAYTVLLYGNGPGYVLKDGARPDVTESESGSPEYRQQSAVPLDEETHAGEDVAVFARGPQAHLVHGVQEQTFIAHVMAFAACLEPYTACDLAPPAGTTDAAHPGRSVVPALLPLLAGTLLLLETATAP
Sequence of Polyadenylate-binding protein 1 (P11940 whole entry): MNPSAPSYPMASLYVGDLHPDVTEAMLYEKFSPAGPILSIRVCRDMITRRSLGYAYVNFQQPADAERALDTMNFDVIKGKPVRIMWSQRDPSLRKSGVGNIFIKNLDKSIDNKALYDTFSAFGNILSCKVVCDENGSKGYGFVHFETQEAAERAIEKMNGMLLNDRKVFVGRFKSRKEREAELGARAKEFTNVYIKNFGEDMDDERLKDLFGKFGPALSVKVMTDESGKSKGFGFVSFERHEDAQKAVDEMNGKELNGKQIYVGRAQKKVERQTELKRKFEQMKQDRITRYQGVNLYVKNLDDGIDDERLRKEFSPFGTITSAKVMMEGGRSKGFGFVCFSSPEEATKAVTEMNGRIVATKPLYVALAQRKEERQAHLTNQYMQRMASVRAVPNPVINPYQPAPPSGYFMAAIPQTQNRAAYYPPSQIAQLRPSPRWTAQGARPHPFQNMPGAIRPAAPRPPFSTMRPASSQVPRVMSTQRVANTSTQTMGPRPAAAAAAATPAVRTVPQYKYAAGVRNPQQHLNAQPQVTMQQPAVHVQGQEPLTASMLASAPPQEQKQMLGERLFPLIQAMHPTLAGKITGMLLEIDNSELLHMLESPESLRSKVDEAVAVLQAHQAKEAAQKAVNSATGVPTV
Sequence of Glyceraldehyde-3-phosphate dehydrogenase (P04406 whole entry): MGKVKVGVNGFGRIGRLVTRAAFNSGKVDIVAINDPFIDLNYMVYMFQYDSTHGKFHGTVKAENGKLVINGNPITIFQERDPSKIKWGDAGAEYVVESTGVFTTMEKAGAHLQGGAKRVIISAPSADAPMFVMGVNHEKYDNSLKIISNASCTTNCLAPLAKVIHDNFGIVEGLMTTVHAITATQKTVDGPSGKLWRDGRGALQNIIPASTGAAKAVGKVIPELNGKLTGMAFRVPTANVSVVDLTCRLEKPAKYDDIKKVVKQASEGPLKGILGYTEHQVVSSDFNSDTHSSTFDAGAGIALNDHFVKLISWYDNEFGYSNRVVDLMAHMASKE

With `Nc1nc(Cc2cccc(Br)c2)n(-c2ccccc2)n1`, the IC50 in assay [1] is > 100 µM (not active); in [2] it was > 100 µM (inactive); in assay [3], > 100 µM (inactive).
With `CCCN1CCN(C(=O)C2CCN(c3ncnc4c3nc3n4CCCCC3)CC2)CC1`, the IC50 in assay [4] was 14.2 µM (active); in assay [5], 6.38 µM (active); on Bcl-2-related protein A1, > 20 µM (inactive).
As for `CCOC(=O)c1sc2ncnc(N3CCN(C(=O)OCC)CC3)c2c1C`, the IC50 on Coagulation factor XII was > 50 µM (inactive).
`Cc1cc(C)c(C#N)c(SCC(=O)c2ccc(O)c(O)c2)n1`: the figures for the IC50 in assay [2] and in assay [3] were 1.56 µM (active) and 6.71 µM (active), respectively.
Take `COc1cc(/C=N/NC(=O)c2ccccc2)ccc1OCC(=O)Nc1ccc([N+](=O)[O-])cc1`: the IC50 in [6] was 2.74 µM (active); in [7], 49.5 µM (active).
`C=CCn1c(COc2ccc(CC)cc2)nnc1SCC(=O)N(C)C1CCS(=O)(=O)C1` (configuration not stated): on Coagulation factor XII, the IC50 was > 50 µM (inactive).

The values are drawn from ChEMBL document CHEMBL1201862, “PubChem BioAssay data set” (2004).
